Values of other authors as cited in patent US5001113A, “Di- or tripeptide renin inhibitors containing lactam conformational restriction in ACHPA” (Merck & Co., Inc., priority 1990, dated 1991).
Where a SMILES comes first, the peptide text is derived from it. [ ]: non-standard residue; d: D form. The star is where a group is joined. Sta = CC(C)C[C@H](N)[C@@H](O)CC(=O)O; Isovaleryl = CC(C)CC(=O)*

Tested on: hog renin
Conditions: after the injection of hog renin into nephrectomized rats

SMILES: CC(C)CC(=O)N[C@H](C(=O)N[C@H](C(=O)N[C@@H](CC(C)C)[C@@H](O)CC(=O)N[C@@H](C)C(=O)N[C@@H](CC(C)C)[C@@H](O)CC(=O)O)C(C)C)C(C)C [pepstatin] (Isovaleryl-VV[Sta]A[Sta]-OH)
- blood pressure in vivo: reduces blood pressure
